Measured values reported in PubChem BioAssay (NCI).
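Exposure lasted 48 hours, with cells grown in 96-well plates and compounds tested at five concentrations. TGI is the concentration that stops growth completely.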

How the values were obtained:
Assay in all cases: NCI anticancer screen, dose series, 48 h
NCI/ADR-RES ovarian = test system: NCI/ADR-RES ovarian
MDA-N = test system: MDA-N
PC-3 prostate = test system: PC-3 prostate
HCC-2998 colon = test system: HCC-2998 colon
EKVX NSCLC = test system: EKVX NSCLC
A549 NSCLC = test system: A549 NSCLC
HOP-92 NSCLC = test system: HOP-92 NSCLC
SF-268 CNS = test system: SF-268 CNS
OVCAR-8 ovarian = test system: OVCAR-8 ovarian
A498 renal = test system: A498 renal
DU-145 prostate = test system: DU-145 prostate
HCT-15 colon = test system: HCT-15 colon
HL-60(TB) leukemia = test system: HL-60(TB) leukemia
LOX IMVI melanoma = test system: LOX IMVI melanoma
OVCAR-3 ovarian = test system: OVCAR-3 ovarian
HOP-62 NSCLC = test system: HOP-62 NSCLC
SK-MEL-2 melanoma = test system: SK-MEL-2 melanoma
SF-539 CNS = test system: SF-539 CNS
T-47D breast = test system: T-47D breast
SR leukemia = test system: SR leukemia

Row | SMILES | TGI (NCI/ADR-RES ovarian) [µM] | TGI (MDA-N) [µM] | TGI (PC-3 prostate) [µM] | TGI (HCC-2998 colon) [µM] | TGI (EKVX NSCLC) [µM] | TGI (A549 NSCLC) [µM] | TGI (HOP-92 NSCLC) [µM] | TGI (SF-268 CNS) [µM] | TGI (OVCAR-8 ovarian) [µM] | TGI (A498 renal) [µM] | TGI (DU-145 prostate) [µM] | TGI (HCT-15 colon) [µM] | TGI (HL-60(TB) leukemia) [µM] | TGI (LOX IMVI melanoma) [µM] | TGI (OVCAR-3 ovarian) [µM] | TGI (HOP-62 NSCLC) [µM] | TGI (SK-MEL-2 melanoma) [µM] | TGI (SF-539 CNS) [µM] | TGI (T-47D breast) [µM] | TGI (SR leukemia) [µM]
1 | CC1(C)CC(=O)C2=C(C1)NC(SCC(=O)O)=C(C#N)C2c1ccc(Br)cc1 (stereo unspecified) | > 100 | > 100 | > 100 | > 100 | > 100 | > 100 | > 100 | > 100 | > 100 | > 100 | > 100 | > 100 | > 100 | > 100 | > 100 | > 100 | > 100 | – | – | –
2 | Nc1ccccc1/C=C\c1ccccc1 | > 100 | > 100 | > 100 | – | > 100 | > 100 | > 100 | > 100 | > 100 | – | > 100 | > 100 | > 100 | – | > 100 | > 100 | – | > 100 | > 100 | –
3 | CN1[C@@H]2CCCC[C@H]2N(C)P1(=O)C(O)/C=C/c1ccccc1 (stereo partly specified) | > 100 | > 100 | > 100 | > 100 | > 100 | > 100 | > 100 | > 100 | > 100 | > 100 | > 100 | > 100 | > 100 | > 100 | > 100 | > 100 | > 100 | – | > 100 | –
4 | OCc1c2c(cc3c1CC1(C3)Cc3cc4c(c(CO)c3C1)CCC4)CCC2 | 37.8 | 29.2 | 39.9 | 35 | 30.5 | 30.9 | 33.1 | – | 38 | 30.3 | – | 34.6 | 18.4 | 28.7 | 28.3 | 29.6 | 36.7 | 32.1 | 31 | –
5 | COc1cc2c(cc1OC)C1=Cc3ccc(OC)c(OC)c3C(C#N)N1CC2 (stereo unspecified) | > 100 | > 100 | > 100 | 51.1 | > 100 | > 100 | – | > 100 | – | > 100 | > 100 | > 100 | > 100 | – | > 100 | > 100 | 43.4 | > 100 | 40.4 | –
6 | N#Cc1ccc(/C=N/NC(=O)CSCC(=O)N/N=C/c2ccc(C#N)cc2)cc1 | > 100 | – | > 100 | > 100 | > 100 | > 100 | > 100 | > 100 | > 100 | > 100 | > 100 | > 100 | > 100 | – | > 100 | > 100 | > 100 | > 100 | > 100 | > 100
7 | CC(C)=CC(C)C(C(O)CCC1(c2ccoc2)OCCO1)S(=O)(=O)c1ccccc1 (stereo unspecified) | > 100 | > 100 | > 100 | > 100 | > 100 | > 100 | – | > 100 | > 100 | > 100 | – | > 100 | – | > 100 | > 100 | > 100 | > 100 | > 100 | > 100 | –
8 | CC(=O)N1CC(C)(C)c2c1cc(C)c(O)c2C | > 100 | > 100 | > 100 | > 100 | > 100 | > 100 | – | > 100 | > 100 | > 100 | > 100 | > 100 | > 100 | > 100 | > 100 | > 100 | > 100 | > 100 | > 100 | –
9 | Fc1ccc(C2NC(=S)NC3=C2CCOc2c3ccc3ccccc23)cc1 (stereo unspecified) | 76.2 | – | > 100 | 69.1 | > 100 | > 100 | > 100 | > 100 | > 100 | 79.5 | > 100 | > 100 | > 100 | – | > 100 | > 100 | > 100 | > 100 | 9.44 | –
10 | N#CCN1CCCCCc2ccccc21 | > 100 | – | – | > 100 | > 100 | > 100 | > 100 | > 100 | > 100 | – | > 100 | > 100 | > 100 | – | – | > 100 | – | > 100 | > 100 | > 100
